Data reported in PubChem BioAssay (NCI).
Values joined by “and” are separate entries in the source; they are usually repeats but may differ in a detail not shown here. Equal entries are not always repeated.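 Protocol summary: plate cells (96-well), add compound at 5 concentrations, incubate 48 h, interpolate endpoints linearly. GI50 = concentration required for 50% inhibition of growth. TGI: total growth inhibition.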

How the values were obtained:
Experiment in all cases: growth of human tumour cells (NCI), 48 h
K-562 leukemia = test system: K-562 leukemia
MALME-3M melanoma = test system: MALME-3M melanoma
OVCAR-5 ovarian = test system: OVCAR-5 ovarian
SF-539 CNS = test system: SF-539 CNS
SR leukemia = test system: SR leukemia
UACC-257 melanoma = test system: UACC-257 melanoma
CAKI-1 renal = test system: CAKI-1 renal
HS 578T breast = test system: HS 578T breast
MDA-MB-231 breast = test system: MDA-MB-231 breast
MDA-MB-435 = test system: MDA-MB-435

SMILES | TGI (K-562 leukemia) [µM] | TGI (MALME-3M melanoma) | TGI (OVCAR-5 ovarian) | TGI (SF-539 CNS) [µM] | TGI (SR leukemia) [µM] | TGI (UACC-257 melanoma) | TGI (CAKI-1 renal) [µM] | GI50 (CAKI-1 renal) [µM] | GI50 (HS 578T breast) [µM] | TGI (HS 578T breast) [µM] | GI50 (K-562 leukemia) [µM] | GI50 (MALME-3M melanoma) [µM] | GI50 (MDA-MB-231 breast) [µM] | TGI (MDA-MB-231 breast) [µM] | GI50 (MDA-MB-435) [µM] | TGI (MDA-MB-435) [µM] | GI50 (OVCAR-5 ovarian) [µM] | GI50 (SF-539 CNS) [µM] | GI50 (UACC-257 melanoma) [µM] | GI50 (SR leukemia) [µM]
C#CCC[C@@H]1O[C@@]1(C)CC/C=C(\C)CC/C=C/C=O | 54 | 48.3 µM | > 100 µM | 38.7 | > 100 | 69.7 µM |  |  |  |  |  |  |  |  |  |  |  |  |  | 
O=C1c2ccccc2C2(O)Nc3cc(O)ccc3C12O (centres undefined) | > 100 | > 100 µM | > 100 µM | > 100 |  |  | > 100 |  |  |  |  |  |  |  |  |  |  |  |  | 
O=C(NCCCCCCCCNC(=O)c1cnc2ccccc2n1)c1cnc2ccccc2n1 | > 100 | > 100 µM | > 100 µM | > 100 | > 100 | > 100 µM | > 100 |  |  |  |  |  |  |  |  |  |  |  |  | 
CC1=CC2CC(C)=C(CC[C@]3(C)CC[C@H]([C@@H](C)C(=O)O)OO3)C(C)(C)C2CC1 (some centres undefined) | 0.471 | 2.02 µM | 3.8 µM | 2.68 | 0.382 | 3.03 µM | 2.76 |  |  |  |  |  |  |  |  |  |  |  |  | 
CC(C)(C)OC(=O)NCCNC1=CC(=O)c2nc3ccccc3c3ccnc1c23 | > 100 | 81.8 µM | 86.1 µM | 40.5 |  | 75.5 µM | 72.3 | 28.4 | 25.5 | 73.8 | 0.131 | 32 | 18.4 | 58.6 | 15.7 | 37.7 | 28 | 20.2 | 23.5 | 
C=C(Cn1c(=O)c2ccccc2c2ccccc21)c1ccc(C(=O)Nc2ccccc2N)cc1 |  | > 92.8 µM | > 100 µM | > 100 |  | > 100 µM | > 100 | 23.3 | 58.2 | > 100 | 0.781 | 5.19 | 1.75 | > 27.8 | 24.2 | > 100 | > 100 | 21.9 | > 41.4 | 
O=C(/C=C/c1ccc(B(O)O)cc1)/C=C/c1ccc(B(O)O)cc1 | > 100 | 20.9 µM | 20.3 µM | 5.35 |  | 13.3 µM | 19.2 | 6.22 | 1.54 | 5.57 | 3.1 | 6.3 | 3.08 | 10.8 | 1.9 | 4.24 | 4.4 | 2.03 | 3.4 | 
CN(C)c1ccc2c(c1)C(=O)N(OS(=O)(=O)c1ccc([N+](=O)[O-])cc1)C2=O | > 100 | > 100 µM | 57.6 µM | 33.8 | 63.8 | 58.8 µM | 54.2 |  |  |  |  |  |  |  |  |  |  |  |  | 
CC(=O)N1CCN(C2=Nc3ccccc3CO2)C1=S | > 100 | 89 µM | > 100 µM | > 100 | 68.4 | > 100 µM | > 100 | > 100 |  |  | 46.5 | 26 | > 100 | > 100 | 81.4 | > 100 | 85.8 | > 100 | > 100 | 29.3
COc1cc(CCc2cccnc2)cc(OC)c1OC | > 100 | > 100 µM | > 100 µM | > 100 |  | > 100 µM | > 100 |  |  |  |  |  |  |  |  |  |  |  |  | 
CCC[CH2][Sn]([CH2]CCC)([O]C(=O)c1c(F)cccc1F)[O]C(=O)c1c(F)cccc1F | > 100 | 1.8 µM | 2.61 µM | 2.2 | 2.14 | 1.99 µM | 1.7 | 0.38 |  |  | 0.355 | 0.462 |  |  |  |  | 1.34 | 1.02 | 0.671 | 0.318
N#Cc1cccc(N2C(=O)c3c(c(-c4ccccc4)c(-c4ccc(Sc5ccc(-c6c(-c7ccccc7)c7c(c(-c8ccccc8)c6-c6ccccc6)C(=O)N(c6cccc(C#N)c6)C7=O)cc5)cc4)c(-c4ccccc4)c3-c3ccccc3)C2=O)c1 | > 100 | > 100 µM | > 100 µM | > 100 |  | > 100 µM |  |  |  |  |  |  |  |  |  |  |  |  |  | 
FC(F)(F)C1(Cl)C(c2ccccc2)=C1c1ccccc1 | 26.2 | 28.5 µM | 31.3 µM | 29.6 | > 100 | 27.2 µM | 25.3 |  |  |  |  |  |  |  |  |  |  |  |  | 
COc1cccc([C@H]2CC(=O)c3cc4c(cc3N2)OCO4)c1 |  |  |  |  |  | > 100 µM | > 100 | 0.151 |  | 83.3 |  |  | 0.716 | > 100 | 0.0177 | 0.044 | 13.7 | 0.084 | 0.0414 | 
CC1[C@@H]2[C@@H](C=C3C4CCC5Cc6nc7c(nc6C[C@@]5(C)C4C[C@H](O)[C@]32CO)CC2CCC3C4=C[C@H]5O[C@@]6(O[C@@](C)(CO)C[C@@H]6O)C(C)[C@@]5(O)[C@]4(C)[C@@H](O)CC3[C@]2(C)C7)O[C@]12CCC(C)(C)O2 (some centres undefined) |  | 0.722 µM and 0.183 µM | 0.961 µM and 0.108 µM |  | 0.229 | 0.305 µM and 0.392 µM | > 3.65 | 0.0406 |  |  |  | 0.00982 |  |  |  |  | 0.00878 | 0.00363 |  | 
CC1=CCC[C@@]2(C)C(CC[C@@H]2C(C)/C=C/C(C)C)c2ccc(cc2C(=O)O)C[C@@H](O)CC1 (some centres undefined) | 26.4 | 37.7 µM | 30 µM | 21 | 33 | 30.5 µM | 32.9 |  |  |  |  |  |  |  |  |  |  |  |  | 
O=P([O-])(O)OP(=O)([O-])O.[NH-][C@H]1CCCC[C@@H]1[NH-].[OH-].[OH-].[Pt+4] | > 100 | 38.2 µM | 63.2 µM | 57.6 |  | > 100 µM | > 100 | 34.4 | 36.1 | 93.1 | 92.9 | 14.3 | 25 | 57.2 | 31.2 | > 100 | 26.3 | 22.3 | 37 | 
COC(=O)Cc1cc(OC)c(OC)cc1Br | > 100 | > 100 µM | > 100 µM |  | > 100 | > 100 µM | > 100 |  |  |  |  |  |  |  |  |  |  |  |  | 
C=C(CNC(=O)Nc1ccc(-c2ccccc2)cc1)c1ccc(C(=O)Nc2ccccc2N)cc1 | > 100 | > 100 µM | > 100 µM | > 100 |  | > 100 µM | > 100 | > 100 | 81.7 | > 100 | 40.6 | 53.7 | 31.1 | > 100 | 89.8 | > 100 | > 100 | > 100 | > 100 | 
